# Patent publication US5112811A, “SDK peptides and therapeutic compositions containing them” (Societe de Conseils de Recherches et d'Applications …, priority 1989, dated 1992)
# Residues, ends and D or L forms follow the SMILES beside them.
# Legend:
# Jurkat T cells = experiment: Rosettes protocol: rosette formation between Jurkat T cells and sheep red blood cells; type: cell-based
# Experimental: Wash three times the red blood cells (RBC) in RPMI 1640 or RBS or Hanks +antibiotic drugs. Centrifuge for 7 minutes at 3000 rpm.
# Put the cells sap in suspension. Count. Bring to 2.10^8 RBC/ml in a solution of RPMI at 20 % of Foetal Calf Serum (FCS) (4 ml formerly adsorbed on 1 ml of RBC sap, 30 minutes on an ice-bath, then centrifuge for 7 minutes at 3000 rpm and recover in sterile conditions).
# Take an aliquot of Jurkat T cells in culture. Make a viability with Trypan blue.
# Then take the volume of cells required for practical work. Wash the cells three times in RPMI 1640 or PBS or Hanks +antibiotic drugs. Centrifuge for 7 minutes at 900 rpm.
# Put the cells sap in suspension. Count. Bring to 2.10^6 Jurkat T cells/ml of solution of RPMI at 20 % of adsorbed FCS.
# Inhibiting solution =SDK (2.10^-7 mole).
# Peptides to be evaluated are dissolved in RPMI 1640 at the appropriate concentration.
# Place, in the tube, 200 μl of the inhibiting solution +100 μl of Jurkat T cells […] in RMPI +FCS 20 %; leave 10 minutes on an ice-bath. Add […] in RPMI +FCS 20 %.
# Centrifuge for 5 minutes at 500 rpm. Leave overnight at 4° C.
# Set the microscope : ocular :×6 objective :×7
# Put carefully back in suspension the cells by tapping. Let it rest for a while.
# Add, in the tube, 30 μl of Toluidine blue 1 % (to dye the lymphocytes). Tap gently.
# Read 3 Malassex hemocytometer per experimental point.
# [1] = test system: Human peripheral mononuclear cells (MNC) stimulated by 0.1% PHA; experiment: Stimulation of T lymphocytes proliferation ([3H]thymidine DNA synthesis in PHA-stimulated MNC); type: cell-based; settings: for DNA synthesis induced in MNC stimulated by 0.1% PHA: PBL with 0.1% PHA, 3 days; for % stimulation of DNA synthesis in MNC stimulated by 0.1% PHA: versus control (RPMI 1640)
# Experimental: Dilute blood at 1/2 in PBS.
# On 15 ml of Ficoll-Hypaque, put 35 ml of dilute blood.
# Centrifuge 30 minutes at 1800 rpm, at room temperature.
# Take the ring corresponding to mononuclear cells (MNC) back with Pasteur pipette.
# Wash twice in PBS (centrifuge for 10 minutes at 1800 rpm).
# Bring to 2.10^6 cells/ml with RPMI 1640 "complete" medium +10 % SVF.
# PHA-M : Reconstitute a 5 ml bottle lyophylized with 5 ml of "complete" medium. Solution of 100 %. Dilute to obtain a 0.4 % solution.
# SDK : Tube […] +4.35 ml "complete" medium. Solution 2.3 10^-4 M.
# Then dilute successively 450 μl "medium" +50 μl of dilution.
# In 96-well sterilized boxes NUNC :
# 50 μl of PHA 0.4 % (0.1 % final)
# Incubate for 3 days at 37° C. in air/CO* atmosphere 95/5. During the last 24 hours, make a puls of [^3 H] Thymidine : 1 μci/well. Pick up the wells on filters and count with a counter.
# [2] = test system: B lymphocytes which secrete IgM immunoglobulines; experiment: Humoral response in mice to sheep red blood cells (hemolysis plaque technique, Jerne method); type: in vivo, mice of B6D2F1 strain; settings: 3 μg/kg IP; for Number of P.F.C./10^6 cells: read on day +4; for % stimulation of humoral response: versus saline
# Experimental: 6-to-8 week old mice of B6D2F1 strain are sensitized, on day 0, with 0.2 ml of a sheep red blood cells suspension [10^8 cells ] in a saline solution of Hanks.
# The Ser-Asp-Lys and the Pro-Ser-Asp-Lys-Pro peptides (3 μg/kg) were injected in solution physiological serum, by IP route, in 0.2 ml, at the appointed time.
# On day +4, animals are killed and the number of B lymphocytes which secrete IgM immunoglobulines are counted by the hemolysis plaque technique (Jerne method).
# 8 mice / batch. 4 determinations / animal made test : 2 experiments / point.
SMILES,% INHIBITION of rosettes (Jurkat T cells; peptide 10^-4 M),% ROSETTES (Jurkat T cells; peptide 10^-4 M),% INHIBITION of rosettes (Jurkat T cells; peptide 10^-5 M),% ROSETTES (Jurkat T cells; peptide 10^-5 M),% INHIBITION of rosettes (Jurkat T cells; peptide 10^-6 M),% ROSETTES (Jurkat T cells; peptide 10^-6 M),% INHIBITION of rosettes (Jurkat T cells; peptide 10^-7 M),% ROSETTES (Jurkat T cells; peptide 10^-7 M),% INHIBITION of rosettes (Jurkat T cells; peptide 10^-8 M),% ROSETTES (Jurkat T cells; peptide 10^-8 M),% INHIBITION of rosettes (Jurkat T cells; peptide 10^-9 M),% ROSETTES (Jurkat T cells; peptide 10^-9 M),% ROSETTES (Jurkat T cells; peptide 10^-10 M),DNA synthesis induced in MNC stimulated by 0.1% PHA ([1]; peptide 3.10^-5 M),% stimulation of DNA synthesis in MNC stimulated by 0.1% PHA ([1]; peptide 3.10^-5 M),Number of P.F.C./10^6 cells ([2]; injection at 0 h),% stimulation of humoral response ([2]; injection at 0 h),Number of P.F.C./10^6 cells ([2]; injection at +24 h),Number of P.F.C./10^6 cells ([2]; injection at +48 h),% stimulation of humoral response ([2]; injection at +48 h),also measured
"NCCCC[C@H](NC(=O)[C@H](CC(=O)O)NC(=O)[C@@H](N)CO)C(=O)O [SDK, Ser-Asp-Lys] (H-Ser-Asp-Lys-OH)",-40%,38 ± 3%,-28%,45 ± 4%,-22%,50 ± 2%,-22%,49 ± 2%,-36%,40 ± 2%,-32%,43 ± 1%,43 ± 3%,56 ± 5 cpm × 10^3 /2.10^5 cells,+60%,903 ± 133 P.F.C./10^6 cells,+97%,459 ± 103 P.F.C./10^6 cells,673 ± 110 P.F.C./10^6 cells,+65%,% INHIBITION of rosettes (Jurkat T cells; peptide 10^-10 M): -32%; % INHIBITION of rosettes (Jurkat T cells; peptide 10^-11 M): -36%; % ROSETTES (Jurkat T cells; peptide 10^-11 M): 40 ± 1%; % INHIBITION of rosettes (Jurkat T cells; peptide 10^-12 M): -30%; % ROSETTES (Jurkat T cells; peptide 10^-12 M): 44 ± 3%; % INHIBITION of rosettes (Jurkat T cells; peptide 10^-13 M): -19%; % ROSETTES (Jurkat T cells; peptide 10^-13 M): 51 ± 7%; % INHIBITION of rosettes (Jurkat T cells; peptide 10^-14 M): -14%; % ROSETTES (Jurkat T cells; peptide 10^-14 M): 55 ± 2%; % ROSETTES (Jurkat T cells; peptide 10^-15 M): 63 ± 4%; DNA synthesis induced in MNC stimulated by 0.1% PHA ([1]; peptide 3.10^-10 M): 52 ± 5 cpm × 10^3 /2.10^5 cells; % stimulation of DNA synthesis in MNC stimulated by 0.1% PHA ([1]; peptide 3.10^-10 M): +30%; Number of P.F.C./10^6 cells ([2]; injection at +72 h): 1073 ± 348 P.F.C./10^6 cells; % stimulation of humoral response ([2]; injection at +72 h): +134%; Number of P.F.C./10^6 cells ([2]; injection at -24 h): 644 ± 170 P.F.C./10^6 cells; % stimulation of humoral response ([2]; injection at -24 h): +45%
"NCCCC[C@H](NC(=O)[C@H](CC(=O)O)NC(=O)[C@H](CO)NC(=O)[C@@H]1CCCN1)C(=O)N1CCC[C@H]1C(=O)O [PSDKP, Pro-Ser-Asp-Lys-Pro] (H-PSDKP-OH)",-37%,37 ± 7%,-44%,33 ± 3%,-54%,27 ± 5%,-24%,45 ± 6%,-19%,48 ± 2%,-19%,48 ± 4%,52 ± 5%,54 ± 4 cpm × 10^3 /2.10^5 cells,+42%,915 ± 140 P.F.C./10^6 cells,+99%,475 ± 82 P.F.C./10^6 cells,589 ± 101 P.F.C./10^6 cells,+45%,Number of P.F.C./10^6 cells ([2]; injection at +72 h): 543 ± 112 P.F.C./10^6 cells; Number of P.F.C./10^6 cells ([2]; injection at -24 h): 630 ± 142 P.F.C./10^6 cells; % stimulation of humoral response ([2]; injection at -24 h): +42%
